Experimental data reported in patent publication US9193697B2, “Oxazole derivatives useful as modulators of FAAH” (MERCK SHARP & DOHME CORP., priority 2010, dated 2015).

Target: human FAAH (Fatty Acid Amide Hydrolase) (Homo sapiens (Human), UniProt O00519)
Test: FAAH inhibition, human FAAH CHO whole cell format
Format: cell-based
Source text: To assist in assay development stable cell lines for human, murine and rat full length FAAH were developed. […] The full length FAAH was subcloned into the mammalian expression vector, pcDEF.neo, using XbaI and EcoRI restriction sites and used for stable cell line generation.
The full length murine FAAH was subcloned into the mammalian expression vector, pcDEFneo using either EcoRI (murine) or KpnI and EcoRI (rat) restriction sites. Chinese hamster ovary cells (CHO) were transfected following manufacturers protocol (AMAXA). Forty eight hours post transfection, cells were trypsinized and transferred to 96 well plates in Iscove's DMEM media supplemented with 2 mM Glutamine, 10% fetal calf serum, 1 mg/ml geneticin and HT Supplement (0.1 mM sodium hypoxanthine, 0.016 mM thymidine) in order to isolate single clones. […] Following removal of tissue culture media cells were dislodged following addition of Cellstripper (Mediatech, Inc. Manassas, Va.) and transferred to 96 well black clear bottom assay plate, centrifuged at 1,000 rpm for 3 mins and media removed and replaced with assay buffer (50 mM Tris pH8.0, 1 mM EDTA, 0.1% fatty acid free BSA). The reaction was initiated by addition of fluorescent substrate, AMC Arachidonoyl Amide (Cayman Chemical, Ann Arbor, Mich.) to 1 μM and reaction allowed to proceed for 2 hours at room temperature. Release of fluorescence was monitored in a CytoFluor Multiplate Reader.
Assays are performed on either cell lysate or microsome fractions prepared as described or in whole cell format employing either the fluorescent substrate AAMCA (Cayman chemical, Ann Arbor, Mich.,) or ^3H-anandamide ([ETHANOLAMINE-1-3H] American Radiolabeled Chemicals; 1 mCi/ml). […] AAMCA substrate was used to achieve a final concentration of 1 μM and reaction allowed to proceed at room temperature for 1-3 hours. […] Whole cell assay is conducted with cells harvested after rinsing tissue culture flasks three times with Ca^++Mg^++ free PBS, incubating for 10 min in Enzyme free dissociation media and centrifuging for 5 minutes at 1,000 rpm in table top centrifuge. Cells are resuspended in assay buffer at desired cell number in (4×10^4 cells/assay in 96-well format; 1×10^4 cells/assay in 384-well format) and assayed as described.

Sequence of human FAAH (Fatty Acid Amide Hydrolase) (O00519 whole entry): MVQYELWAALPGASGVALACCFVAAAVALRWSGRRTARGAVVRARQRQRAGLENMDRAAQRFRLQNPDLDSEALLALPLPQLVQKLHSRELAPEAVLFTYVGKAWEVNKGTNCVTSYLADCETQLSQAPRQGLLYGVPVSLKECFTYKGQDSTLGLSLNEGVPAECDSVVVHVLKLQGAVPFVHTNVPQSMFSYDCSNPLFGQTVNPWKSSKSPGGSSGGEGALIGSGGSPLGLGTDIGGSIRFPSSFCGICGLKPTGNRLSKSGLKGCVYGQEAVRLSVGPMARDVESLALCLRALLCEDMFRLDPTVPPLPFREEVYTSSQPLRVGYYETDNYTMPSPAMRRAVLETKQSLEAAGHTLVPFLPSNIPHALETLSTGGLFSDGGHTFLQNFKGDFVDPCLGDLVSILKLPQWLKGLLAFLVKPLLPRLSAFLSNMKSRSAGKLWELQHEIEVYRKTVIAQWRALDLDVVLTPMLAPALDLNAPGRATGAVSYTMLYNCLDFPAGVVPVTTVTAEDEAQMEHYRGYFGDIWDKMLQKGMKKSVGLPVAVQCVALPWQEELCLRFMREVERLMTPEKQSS

Row | IC50 [nM] | Compound
1 | 314 | CC(C)(O)c1ccc(-c2nc(C3CCOCC3)oc2Sc2ccc(Cl)cn2)cn1 [Example A7.1, 2-(5-{5-[(5-chloropyridin-2-yl)sulfanyl]-2-(tetrahydro-2H-pyran-4-yl)-1,3-oxazol-4-yl}pyridin-2-yl)propan-2-ol]
2 | 852 | CC(C)(O)c1ccc(-c2nc(C3CCOCC3)oc2Sc2ncc(Cl)cn2)cn1 [Example A7.3, 2-(5-{5-[(5-chloropyrimidin-2-yl)sulfanyl]-2-(tetrahydro-2H-pyran-4-yl)-1,3-oxazol-4-yl}pyridin-2-yl)propan-2-ol]
3 | 454 | COc1ccc(Sc2oc(C3CCOCC3)nc2-c2ccc(C(C)(C)O)nc2)nc1 [Example A7.4, 2-(5-{5-[(5-methoxypyridin-2-yl)sulfanyl]-2-(tetrahydro-2H-pyran-4-yl)-1,3-oxazol-4-yl}pyridin-2-yl)propan-2-ol]
4 | 4250 | CC(C)(O)c1ccc(-c2nc(C3CCOCC3)oc2Sc2ccc(F)cn2)cn1 [Example A7.5, 2-(5-{5-[(5-fluoropyridin-2-yl)sulfanyl]-2-(tetrahydro-2H-pyran-4-yl)-1,3-oxazol-4-yl}pyridin-2-yl)propan-2-ol]
5 | 4140 | CC(C)(O)c1ccc(-c2nc(C3CCOCC3)oc2Sc2ccc(C3CC3)cn2)cn1 [Example A7.6, 2-(5-{5-{(5-cyclopropylpyridin-2-yl)sulfanyl]-2-(tetrahydro-2H-pyran-4-yl)-1,3-oxazol-4-yl}pyridin-2-yl)propan-2-ol]
6 | 2210 | CC(C)(O)c1ccc(-c2nc(C3CCOCC3)oc2Sc2ccc(OC(F)F)cn2)cn1 [Example A7.7, 2-{5-[5-{[5-(difluoromethoxy)pyridin-2-yl]sulfanyl}-2-(tetrahydro-2H-pyran-4-yl)-1,3-oxazol-4-yl]pyridin-2-yl}propan-2-ol]
7 | 1190 | COc1ccc(Sc2oc(C3CCOCC3)nc2-c2ccc(C(C)(C)O)nc2)cn1 [Example A7.8, 2-(5-{5-{(6-methoxypyridin-3-yl)sulfanyl]-2-(tetrahydro-2H-pyran-4-yl)-1,3-oxazol-4-yl}pyridin-2-yl)propan-2-ol]
8 | ≥ 10000 | CC(C)(O)c1ccc(-c2nc(C3CCOCC3)oc2Sc2cccc(Cl)c2)cn1 [Example A7.9, 2-(5-{5-[(3-chlorophenyl)sulfanyl]-2-(tetrahydro-2H-pyran-4-yl)-1,3-oxazol-4-yl}pyridin-2-yl)propan-2-ol]
9 | ≥ 10000 | CC(C)(O)c1ccc(-c2nc(C3CCOCC3)oc2Sc2ccccc2Cl)cn1 [Example A7.10, 2-(5-{5-[(2-chlorophenyl)sulfanyl]-2-(tetrahydro-2H-pyran-4-yl)-1,3-oxazol-4-yl}pyridin-2-yl)propan-2-ol]
10 | 701 | CC(C)(O)c1ccc(-c2nc(C3CCOCC3)oc2Cc2ccc(Cl)cc2)cn1 [Example A7.11, 2-{5-[5-(4-chlorobenzyl)-2-(tetrahydro-2H-pyran-4-yl)-1,3-oxazol-4-yl]pyridin-2-yl}propan-2-ol]
11 | 290 | CC(C)(O)c1ccc(-c2nc(C3CCOCC3)oc2Oc2ccc(Cl)cc2)cn1 [Example A7.12, 2-{5-[5-(4-chlorophenoxy)-2-(tetrahydro-2H-pyran-4-yl)-1,3-oxazol-4-yl]pyridin-2-yl}propan2-ol]
12 | ≥ 10000 | CN1CCN(CCOC(=O)N2CCC(c3nc(-c4ccc([S+](C)[O-])cc4)c(Sc4ccc(Cl)cn4)o3)CC2)CC1 (stereo not drawn) [Example A7.28, 2-(4-methylpiperazin-1-yl)ethyl 4-{5-[(5-chloropyridin-2-yl)sulfanyl]-4-[4-(methylsulfinyl)phenyl]-1,3-oxazol-2-yl}piperidine-1-carboxylate]
13 | 142 | COC(=O)N1CCC(c2nc(C3CCOCC3)oc2Sc2ccc(Cl)cn2)CC1 [Example A7.32, methyl 4-{5-[(5-chloropyridin-2-yl)sulfanyl]-2-(tetrahydro-2H-pyran-4-yl)-1,3-oxazol-4-yl}piperidine-1-carboxylate]
14 | 1810 | CC(=O)N1CCC(c2nc(C3CCOCC3)oc2Sc2ccc(Cl)cn2)CC1 [Example A7.33, 1-(4-{5-[(5-chloropyridin-2-yl)sulfanyl]-2-(tetrahydro-2H-pyran-4-yl)-1,3-oxazol-4-yl}piperidin-1-yl)ethanone]
15 | 150 | CCOC(=O)N1CCC(c2nc(C3CCOCC3)oc2Sc2ccc(Cl)cn2)CC1 [Example A7.34, ethyl 4-{5-[(5-chloropyridin-2-yl)sulfanyl}-2-(tetrahydro-2H-pyran-4-yl)-1,3-oxazol-4-yl}piperidine-1-carboxylate]
16 | ≥ 10000 | O=C(OCc1ccccc1)N1CCC(c2nc(C3CCOCC3)oc2Sc2ccc(Cl)cn2)CC1 [Example A7.35, benzyl 4-{5-[(5-chloropyridin-2-yl)sulfanyl]-2-(tetrahydro-2H-pyran-4-yl)-1,3-oxazol-4-yl}piperidine-1-carboxylate]
17 | ≥ 10000 | CC(C)COC(=O)N1CCC(c2nc(C3CCOCC3)oc2Sc2ccc(Cl)cn2)CC1 [Example A7.36, 2-methylpropyl 4-{5-[(5-chloropyridin-2-yl)sulfanyl]-2-(tetrahydro-2H-pyran-4-yl)-1,3-oxazol-4-yl}piperidine-1-carboxylate]
18 | 1920 | CC(C)OC(=O)N1CCC(c2nc(C3CCOCC3)oc2Sc2ccc(Cl)cn2)CC1 [Example A7.37, propan-2-yl 4-{5-[(5-chloropyridin-2-yl)sulfanyl]-2-(tetrahydro-2H-pyran-4-yl)-1,3-oxazol-4-yl}piperidine-1-carboxylate]
19 | ≥ 10000 | COCCOC(=O)N1CCC(c2nc(C3CCOCC3)oc2Sc2ccc(Cl)cn2)CC1 [Example A7.38]
20 | 2810 | COc1ccc(OC(=O)N2CCC(c3nc(C4CCOCC4)oc3Sc3ccc(Cl)cn3)CC2)cc1 [Example A7.39, 4-methoxyphenyl 4-{5-[(5-chloropyridin-2-yl)sulfanyl]-2-(tetrahydro-2H-pyran-4-yl)-1,3-oxazol-4-yl}piperidine-1-carboxylate]
21 | 9700 | CCNC(=O)N1CCC(c2nc(C3CCOCC3)oc2Sc2ccc(Cl)cn2)CC1 [Example A7.40, 4-{5-[(5-chloropyridin-2-yl)sulfanyl]-2-(tetrahydro-2H-pyran-4-yl)-1,3-oxazol-4-yl}-N-ethylpiperidine-1-carboxamide]
22 | ≥ 10000 | C[N+]1(C)CCN(c2ccc(-c3nc(C4CCOCC4)oc3Sc3ccc(Cl)cc3)cn2)CC1 [Example B5.14, 4-(5-{5-[(4-chlorophenyl)sulfanyl]-2-(tetrahydro-2H-pyran-4-yl)-1,3-oxazol-4-yl}pyridin-2-yl)-1,1-dimethylpiperazin-1-ium]
23 | 1530 | CC(c1ccc(-c2nc(C3CCOCC3)oc2Sc2ccc(Cl)cc2)cc1)N1CCOCC1 (stereo not drawn) [Example B5.17, 4-[1-(4-{5-[(4-chlorophenyl)sulfanyl]-2-(tetrahydro-2H-pyran-4-yl)-1,3-oxazol-4-yl}phenyl)ethyl]morpholine]
24 | 375 | O=C(c1ccc(-c2nc(C3CCOCC3)oc2Sc2ccc(Cl)cc2)cc1)N1CC2CC1CO2 (stereo not drawn) [Example B5.18, (4-{5-[(4-chlorophenyl)sulfanyl]-2-(tetrahydro-2H-pyran-4-yl)-1,3-oxazol-4-yl}phenyl)(2-oxa-5-azabicyclo[2.2.1]hept-5-yl)methanone]
25 | 2670 | O=C(c1ccc(-c2nc(C3CCOCC3)oc2Sc2ccc(Cl)cc2)cc1)N1CCC(O)CC1 [Example B5.19, (4-{5-[(4-chlorophenyl)sulfanyl]-2-(tetrahydro-2H-pyran-4-yl)-1,3-oxazol-4-yl}phenyl)(4-hydroxypiperidin-1-yl)methanone]
26 | 383 | O=C(c1ccc(-c2nc(C3CCOCC3)oc2Sc2ccc(Cl)cc2)cc1)N1CCOC1 [Example B5.20, (4-{5-[(4-chlorophenyl)sulfanyl]-2-(tetrahydro-2H-pyran-4-yl)-1,3-oxazol-4-yl}phenyl)(1,3-oxazolidin-3-yl)methanone]
27 | 707 | Clc1ccc(Sc2oc(C3CCOCC3)nc2-c2ccc(N3CCNCC3)cc2)cc1 [Example B5.21, 1-(4-{5-[(4-chlorophenyl)sulfanyl]-2-(tetrahydro-2H-pyran-4-yl)-1,3-oxazol-4-yl}phenyl)piperazine]
28 | 40.3 | O=S1(=O)CCN(c2ccc(-c3nc(C4CCOCC4)oc3Sc3ccc(Cl)cc3)cc2)CC1 [Example B5.22, 4-(4-{5-[(4-chlorophenyl)sulfanyl]-2-(tetrahydro-2H-pyran-4-yl)-1,3-oxazol-4-yl}phenyl)thiomorpholine 1,1-dioxide]
29 | 774 | Clc1ccc(Sc2oc(C3CCOCC3)nc2-c2ccc3nncn3c2)cc1 [Example B5.23, 6-{5-[(4-chlorophenyl)sulfanyl]-2-(tetrahydro-2H-pyran-4-yl)-1,3-oxazol-4-yl}[1,2,4]triazolo[4,3-a]pyridine]
30 | ≥ 10000 | O=C(c1ccc(-c2nc(C3CCOCC3)oc2Sc2ccc(Cl)cc2)cn1)N1CCOCC1 [Example B5.24, (5-{5-[(4-chlorophenyl)sulfanyl]-2-(tetrahydro-2H-pyran-4-yl)-1,3-oxazol-4-yl}pyridin-2-yl)(morpholin-4-yl)methanone]
